Experimental data: patent publication US11066651B2, “Methods and compositions relating to viral latency” (University of Utah Research Foundation, priority 2009, dated 2021)
Entries after “also recorded” stand apart in the source; their conditions may differ.

Legend:
[1] = tested on: Latently infected cells (DHIV-infected NP cells); experiment: HIV-1 reactivation in latently infected NP cells by signaling agonists (intracellular p24 Gag, flow cytometry); type: cell-based, human; conditions: agonist 3 days at the concentration of b193; for ability of agonist to reactivate viral gene expression (in words): p24 Gag+ cells
Description: (§1) To assess intracellular p24-gag expression, 5×10^5 cells were fixed and permeabilized with Citofix/Cytoperm during 30 min at 4° C. (BD Biosciences, San Diego, Calif.). Cells were washed with Perm/Wash Buffer (BD Biosciences) and stained with 1:40 dilution of anti-p24 antibody (AG3.0) in 100 μl of Perm/Wash Buffer during 30 min at 4° C. Cells were washed with Perm/Wash Buffer and incubated with 1:100 Alexa Fluor 488 goat anti-mouse IgG (H+L) in 100 μl of Perm/Wash Buffer during 30 min at 4° C. Cells were washed with Perm/Wash Buffer and samples were analyzed by flow cytometry. Forward versus side scatter plots were used to define the live population. In all the experiments, HIV p24-gag staining regions were set with uninfected cells treated in parallel.
To complement the inhibitor studies, additional experimentation was conducted using agonists for the above signaling pathways. Latently infected cells were either left untreated or incubated with agonist. As a positive control, cells were treated with αCD3/CD28. The ability of the agonist to promote viral reactivation was then evaluated by detection of intracellular p24^Gag as shown above (FIG. 4). Phytohemagglutinin (PHA), a lectin that binds non-specifically to carbohydrate moieties on surface glycoproteins and acts as a potent polyclonal mitogen for T cells, was the first to be tested.
(§2) The concentration of each inhibitor or activator was as follows: 5 μM H-89, 50 μM PD98059, 250 nM Wortmannin, 15 nM bisindolylmaleimide II (BIM), 5 μM Rottlerin, 10 μM PP2, 50 μg/ml I kappa B Kinase Inhibitor Peptide, Cell-Permeable (IKK inh.) and 50 μM Forskolin (Calbiochem, San Diego, Calif.); 50 μM SB202190 and 125 ng/ml Leflunomide (Alexis Biochemicals, San Diego, Calif.); 10 nM Gö6976 and 1 μM Prostratin (LC Laboratories, Woburn, Mass.); 25 ng/ml TNF-α (Prepotech Inc.); 10 ng/ml phorbol 12-myristate 13-acetate, 1 μM Ionomycin, 5 μg/ml L-PHA and 1 mM Valproic Acid (Sigma, Saint Louis, Mo.); 500 ng/ml Cyclosporin A (Fluka/Sigma); 25 μM SP600125 (A.G. Scientific Int., San Diego, Calif.); and 20 μM Integrase Inhibitor (118-D-24).

DHIV-infected NP cells = experiment: HIV-1 reactivation by αCD3/CD28 in latently infected NP cells in the presence of signaling inhibitors (intracellular p24 Gag, flow cytometry); type: cell-based, human; conditions: αCD3/CD28 restimulation 3 days; for inhibition of reactivation: inhibitor preincubated 2 hr
Description: as §1
2.5×10^5 cells were reactivated with beads coated with anti-CD3 and anti-CD28 during 72 hours in the presence of IL-2 (1 bead per cell).
For inhibition studies, cells were preincubated with the indicated inhibitor for 2 hr before stimulation (See Supplementary Methods on line for the concentration of each inhibitor or activator).
To begin to dissect potential signaling pathways leading to virus reactivation, a panel of known signaling inhibitors was tested. […] As a control, and to confirm expectations that the observed latent infections represent post-integration events, the integrase inhibitor, 118-D-24, was tested (FIG. 3A).
as §2

[2] = tested on: Jurkat latently infected cells; conditions: Jurkat cell line; cited from earlier work
[3] = tested on: tumor cell lines harboring integrated, latent HIV-1; conditions: through the activation of NFκB; cited from earlier work
[4] = tested on: Latently infected cells (DHIV-infected NP cells); experiment: PHA-mediated HIV-1 reactivation in the presence of inhibitors (intracellular p24 Gag); type: cell-based, human
Description: To assess intracellular p24-gag expression, 5×10^5 cells were fixed and permeabilized with Citofix/Cytoperm during 30 min at 4° C. […] Cells were washed with Perm/Wash Buffer (BD Biosciences) and stained with 1:40 dilution of anti-p24 antibody (AG3.0) in 100 μl of Perm/Wash Buffer during 30 min at 4° C. Cells were washed with Perm/Wash Buffer and incubated with 1:100 Alexa Fluor 488 goat anti-mouse IgG (H+L) in 100 μl of Perm/Wash Buffer during 30 min at 4° C. Cells were washed with Perm/Wash Buffer and samples were analyzed by flow cytometry. Forward versus side scatter plots were used to define the live population. In all the experiments, HIV p24-gag staining regions were set with uninfected cells treated in parallel.
For inhibition studies, cells were preincubated with the indicated inhibitor for 2 hr before stimulation (See Supplementary Methods on line for the concentration of each inhibitor or activator). […]

p38α MAPK = conditions: cited from earlier work
latently infected cells = experiment: IL-7+IL-2 induced viral reactivation in the presence of inhibitors; type: cell-based, human; conditions: IL-7+IL-2 stimulation
Text: Understanding the intracellular mediators of IL-7/IL-2 stimulation provides additional targets toward latent virus purging. Some of these mediators can be enzymes, such as kinases and phosphatases, which may be ameneable to agonistic or antagonistic drugs. It is also important to know the IL-7/IL-2 signaling because, as noted herein, this pathway is the basis for homeostatic proliferation of memory cells, where an important proportion of proliferating cells are not inducing viral reactivation.
IL-7 stimulation induces activation of p38MAPK (a noncanonical IL-7 dependent pathway). […] Therefore, p38α is also a mediator for reactivation via IL-7.

[5] = inhibitor at the concentration of b193

In the case of `C[C@H](CCC(=O)O)C[C@H](C)C[C@H](C)C(=O)/C=C(\O)[C@H](C)C[C@H](C)C/C=C/[C@@H](C)[C@@H](O)[C@@H](C)[C@@H](O)C[C@@H]1CC[C@@](C)([C@H]2CC[C@@](C)([C@@H](C)O)O2)O1` [lonomycin, Ionomycin], the “ability of agonist to reactivate viral gene expression (in words)” value (from here on “ability of agonist”) [1] is reported as “had no effect on viral reactivation; also recorded: produced no detectable reactivation”.

With `CN1CCCC1CCn1cc(C2=C(c3c[nH]c4ccccc34)C(=O)NC2=O)c2ccccc21` (stereo not shown) [BIM, bisindolylmaleimide II] the “effect of inhibitor on viral reactivation (in words)” value (DHIV-infected NP cells; [5]) was “None of these three compounds had a negative effect on viral reactivation”.

For TNF-α, the “reactivation of latent viruses (in words)” value [2] is given as “Reactivation of these latent viruses was accomplished”, the “ability of agonist” value [1] is given as “failed to induce any degree of viral gene expression; also recorded: failed to induce any degree of reactivation; also recorded: failed to induce any detectable reactivation” and the “induction of viral gene expression (in words)” value [3] is given as “can induce viral gene expression”.

With `Cn1c2ccccc2c2c3c(c4c5ccccc5n(CCC#N)c4c21)CNC3=O` [Gö6976] the “effect of inhibitor on viral reactivation (in words)” value (DHIV-infected NP cells; [5]) was “None of these three compounds had a negative effect on viral reactivation”.

With Phytohemagglutinin [PHA] the “ability of agonist” value [1] was “induced reactivation almost as efficiently as αCD3/CD28 treatment” and the reactivation efficiency ([1]; relative to αCD3/CD28, formula) was 79%.

For `CC(C)(C)n1nc(-c2ccc(Cl)cc2)c2c(N)ncnc21` [PP2], the inhibition of reactivation (DHIV-infected NP cells) was “about 96%”, the “viral reactivation with PHA in the presence of inhibitor (reactivation efficiency)” value ([4]; PHA stimulation co-incubated with inhibitor, relative to αCD3/CD28) was 3% and the “effect of inhibitor on reactivation by PHA (in words)” value ([4]; PHA stimulation plus inhibitor) was “completely blocked reactivation by PHA”.

Compound `Oc1ccc(-c2nc(-c3ccncc3)c(-c3ccc(F)cc3)[nH]2)cc1` [SB202190] has an inhibition of reactivation (DHIV-infected NP cells) of 66%.

In the case of `COc1cccc(-c2cc(=O)c3ccccc3o2)c1N` [PD98059], the “effect of inhibitor on viral reactivation (in words)” value (DHIV-infected NP cells; [5]) is reported as “Neither SP600125 nor PD98059 inhibited viral reactivation”.

For `Cc1oncc1C(=O)Nc1ccc(C(F)(F)F)cc1` [Leflunomide], the “effect of inhibitor on viral reactivation (in words)” value (DHIV-infected NP cells; [5]) was “failed to block viral reactivation” and the “effect of inhibitor on viral reactivation (in words)” value (DHIV-infected NP cells; inhibitor at the concentration of b193, listed as lefluonomide) was “does not block reactivation in memory cells”.

In the case of `C[S+]([O-])c1ccc(-c2nc(-c3ccncc3)c(-c3ccc(F)cc3)[nH]2)cc1` (stereo not shown) [SB203580], the inhibition of reactivation (DHIV-infected NP cells) is listed as “about 66%”, the “effect on IL-7 induced proliferative response (in words)” value (p38α MAPK) is listed as “abrogated the proliferative response” and the “effect of inhibitor on reactivation by IL-7+IL-2 (in words)” value (latently infected cells) is listed as “can block reactivation”.

With `O=S(=O)(NCCNC/C=C/c1ccc(Br)cc1)c1cccc2cnccc12` [H-89] the “effect of inhibitor on viral reactivation (in words)” value (DHIV-infected NP cells; [5]) was “did not have any effect on viral reactivation”.

In the case of `CCCCCCCCCCCCCC(=O)O[C@@H]1[C@@H](C)[C@@]2(O)[C@@H](C=C(CO)C[C@]3(O)C(=O)C(C)=C[C@@H]23)[C@@H]2C(C)(C)[C@]12OC(C)=O` [PMA, phorbol 12-myristate 13-acetate], the “reactivation of latent viruses (in words)” value [2] is given as “Reactivation of these latent viruses was accomplished” and the “ability of agonist” value [1] is given as “Neither compound was able to reactivate viral gene expression; also recorded: failed to induce any degree of reactivation; also recorded: failed to induce any detectable reactivation”.

With `CC(=O)O[C@@]12C[C@@H](C)[C@@]3(O)[C@@H](C=C(CO)C[C@]4(O)C(=O)C(C)=C[C@@H]34)[C@@H]1C2(C)C` [prostratin] the “ability of agonist” value [1] was “Neither compound was able to reactivate viral gene expression; also recorded: failed to induce any degree of reactivation”.

With `CCCC(CCC)C(=O)O` [VA, valproic acid] the “ability of agonist” value [1] was “failed to reactivate viral gene expression” and the “ability of agonist” value ([1]; listed as Valproic acid) was “incapable of inducing viral reactivation”.

With `CC(=O)c1c(O)c(C)c(O)c(Cc2c(O)c3c(c(C(=O)/C=C/c4ccccc4)c2O)OC(C)(C)C=C3)c1O` [Rottlerin] the “effect of inhibitor on viral reactivation (in words)” value (DHIV-infected NP cells; [5]) was “None of these three compounds had a negative effect on viral reactivation”.
